ChEMBL document CHEMBL1131616, “TROTEC-1: a new high-affinity ligand for labeling of the dopamine transporter” (J Med Chem, 1998)
pIC50: −log10 of the molar value.

How the values were obtained:
[1] = target: Sodium-dependent noradrenaline transporter (Homo sapiens, UniProt P23975); assay: The compound was tested in vitro for binding affinity for the norepinephrine transporter (NET) using competitive binding assay.
[2] = target: Sodium-dependent serotonin transporter (Homo sapiens, UniProt P31645); assay: The compound was tested in vitro for binding affinity for the serotonin transporter (5-HTT) using competitive binding assay.
[3] = target: T1, Sodium-dependent dopamine transporter (Homo sapiens, UniProt Q01959); assay: The compound was tested in vitro for low binding affinity for the Dopamine transporter (DAT) using competitive binding assay.
[4] = target: T1, Sodium-dependent dopamine transporter; assay: The compound was tested in vitro for high binding affinity for the Dopamine transporter (DAT) using competitive binding assay.

T1 sequence (Q01959 whole entry): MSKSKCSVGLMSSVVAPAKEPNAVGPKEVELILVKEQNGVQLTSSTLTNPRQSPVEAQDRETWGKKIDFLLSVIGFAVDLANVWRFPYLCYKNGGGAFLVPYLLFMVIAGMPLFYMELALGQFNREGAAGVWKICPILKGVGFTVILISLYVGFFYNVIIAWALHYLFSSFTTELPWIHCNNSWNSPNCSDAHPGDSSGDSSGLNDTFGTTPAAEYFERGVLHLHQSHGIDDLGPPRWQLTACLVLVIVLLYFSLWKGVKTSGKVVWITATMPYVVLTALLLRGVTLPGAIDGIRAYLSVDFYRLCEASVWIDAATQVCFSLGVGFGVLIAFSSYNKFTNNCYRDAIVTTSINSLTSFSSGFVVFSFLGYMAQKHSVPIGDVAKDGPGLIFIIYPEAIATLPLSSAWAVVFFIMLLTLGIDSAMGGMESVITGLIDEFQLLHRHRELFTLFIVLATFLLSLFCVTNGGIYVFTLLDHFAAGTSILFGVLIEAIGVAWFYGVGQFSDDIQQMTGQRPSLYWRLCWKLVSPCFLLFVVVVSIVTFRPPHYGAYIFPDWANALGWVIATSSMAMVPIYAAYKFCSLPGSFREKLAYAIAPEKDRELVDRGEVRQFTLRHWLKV
Sequence of Sodium-dependent noradrenaline transporter (P23975 whole entry): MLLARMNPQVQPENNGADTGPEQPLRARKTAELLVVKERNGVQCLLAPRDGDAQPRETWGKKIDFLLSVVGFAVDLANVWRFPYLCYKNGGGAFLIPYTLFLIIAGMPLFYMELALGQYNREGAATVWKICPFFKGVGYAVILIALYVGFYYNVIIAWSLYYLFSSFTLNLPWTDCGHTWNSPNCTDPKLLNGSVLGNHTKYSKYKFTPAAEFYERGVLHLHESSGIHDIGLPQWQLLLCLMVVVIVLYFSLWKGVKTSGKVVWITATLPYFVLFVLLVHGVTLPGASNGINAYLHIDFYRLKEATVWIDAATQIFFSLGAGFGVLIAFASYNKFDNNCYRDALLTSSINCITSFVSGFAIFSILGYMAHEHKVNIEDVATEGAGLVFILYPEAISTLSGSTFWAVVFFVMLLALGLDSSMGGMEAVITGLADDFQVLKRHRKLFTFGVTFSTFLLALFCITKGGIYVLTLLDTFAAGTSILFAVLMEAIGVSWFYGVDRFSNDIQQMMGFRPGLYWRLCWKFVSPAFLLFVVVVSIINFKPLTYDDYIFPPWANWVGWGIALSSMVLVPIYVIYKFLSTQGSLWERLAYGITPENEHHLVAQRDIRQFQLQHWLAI
Sequence of Sodium-dependent serotonin transporter (P31645 whole entry): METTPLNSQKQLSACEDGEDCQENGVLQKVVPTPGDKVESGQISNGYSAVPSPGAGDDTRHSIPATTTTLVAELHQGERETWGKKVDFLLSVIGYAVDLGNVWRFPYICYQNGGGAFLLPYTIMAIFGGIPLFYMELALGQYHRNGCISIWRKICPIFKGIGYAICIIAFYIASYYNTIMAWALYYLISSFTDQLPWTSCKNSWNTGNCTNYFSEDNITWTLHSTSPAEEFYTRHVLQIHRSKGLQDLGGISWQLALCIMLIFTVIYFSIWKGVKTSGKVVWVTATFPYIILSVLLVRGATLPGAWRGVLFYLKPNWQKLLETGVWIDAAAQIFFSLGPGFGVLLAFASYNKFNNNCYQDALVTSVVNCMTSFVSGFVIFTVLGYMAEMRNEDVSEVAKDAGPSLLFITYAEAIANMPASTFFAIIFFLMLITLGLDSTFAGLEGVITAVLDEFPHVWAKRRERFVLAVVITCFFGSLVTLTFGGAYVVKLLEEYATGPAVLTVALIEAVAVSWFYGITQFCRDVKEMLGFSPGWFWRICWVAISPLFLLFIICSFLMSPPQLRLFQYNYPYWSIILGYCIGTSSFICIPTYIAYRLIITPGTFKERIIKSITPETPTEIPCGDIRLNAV

Row | SMILES | pIC50 [1] | pIC50 [2] | pIC50 [3] | pIC50 [4]
1 | COC(=O)[C@H]1[C@@H](c2ccc(F)cc2)C[C@H]2CC[C@H]1N2C | 6.08 | 6.12 |  | 
2 | CSCCSCCC(=O)OC[C@@H]1C2CCC(C[C@@H]1c1ccc(F)cc1)N2C (stereo partly specified) | 7.79 | 7.55 | 8.24 | 9.64
